Measurements from ChEMBL document CHEMBL5352386 (Eur J Med Chem, 2022).
Calls of active or inactive are those of the source. No cut-off for these calls is given here.

Legend:
[1] = target: Cholinesterase (Equus caballus, UniProt P81908); assay: Inhibition of equine serum BuChE using butyrylthiocholine iodide as substrate incubated for 10 mins followed by substrate addition by DTNB-reagent based Ellman's colorimetric assay
[2] = target: T1, Cholinesterase (Homo sapiens, UniProt P06276); assay: Inhibition of human BuChE using butyrylthiocholine iodide as substrate incubated for 10 mins followed by substrate addition by DTNB-reagent based Ellman's colorimetric assay
[3] = test system: PC-12; assay: Cytotoxicity against rat PC12 cells assessed as survival rate at 100 uM measured after 24 hrs by MTT assay relative to control; conditions: PC-12, 24 h, read-out: Survival
[4] = test system: SH-SY5Y; assay: Cytotoxicity against human SH-SY5Y cells assessed as survival rate at 2.5 uM measured after 24 hrs by MTT assay relative to control; format: functional; conditions: read-out: Survival
[5] = Cytotoxicity against mouse BV-2 cells assessed as survival rate at 100 uM measured after 24 hrs by MTT assay relative to control; format: toxicity, cell-based; conditions: read-out: Survival
[6] = test system: L02; assay: Cytotoxicity against human L02 cells assessed as survival rate at 100 uM measured after 24 hrs by MTT assay relative to control; format: functional; conditions: read-out: Survival
[7] = test system: PC-12; assay: Cytotoxicity against rat PC12 cells assessed as inhibition of cell growth measured after 24 hrs by MTT assay; format: functional, cell-based; conditions: PC-12, 24 h
[8] = test system: SH-SY5Y; assay: Cytotoxicity against human SH-SY5Y cells assessed as survival rate at 100 uM measured after 24 hrs by MTT assay relative to control; format: functional; conditions: read-out: Survival
[9] = Cytotoxicity against mouse BV-2 cells assessed as inhibition of cell growth measured after 24 hrs by MTT assay; format: toxicity, cell-based
[10] = Cytotoxicity against mouse BV-2 cells assessed as survival rate at 2.5 uM measured after 24 hrs by MTT assay relative to control; format: toxicity, cell-based; conditions: read-out: Survival
[11] = test system: L02; assay: Cytotoxicity against human L02 cells assessed as survival rate at 2.5 uM measured after 24 hrs by MTT assay relative to control; format: functional; conditions: read-out: Survival
[12] = test system: Mus musculus; assay: Neuroprotective activity against Abeta42 induced cognition impairement in AD mouse model assessed as reduction in latency time to platform at 10 mg/kg, po measured after 14 days by Morris water maze analysis; format: functional, organism-based; conditions: time 14.0 day
[13] = test system: Mus musculus; assay: Neuroprotective activity against Abeta42 induced cognition impairement in AD mouse model assessed as reduction in confusion of escape trajectory at 10 mg/kg, po measured after 14 days; format: functional, organism-based; conditions: time 14.0 day
[14] = test system: SH-SY5Y; assay: Cytotoxicity against human SH-SY5Y cells assessed as inhibition of cell growth measured after 24 hrs by MTT assay; format: functional, cell-based
[15] = test system: L02; assay: Cytotoxicity against human L02 cells assessed as inhibition of cell growth measured after 24 hrs by MTT assay; format: functional, cell-based; conditions: L02, 24 h
[16] = Acute toxicity in overnight fasted female ICR mouse assessed as animal death at 1 g/Kg, IG administered as single dose measured upto 15 days; conditions: in vivo, po, 1000 mg/kg, 360 h, time < 15 day
[17] = target: T1, Cholinesterase; assay: Binding affinity to human BChE assessed as dissociation constant by Surface Plasmon Resonance assay
[18] = Acute toxicity in overnight fasted male ICR mouse assessed as animal death at 1 g/Kg, IG administered as single dose measured upto 15 days; conditions: in vivo, po, 1000 mg/kg, 360 h, time < 15 day
[19] = Acute toxicity in overnight fasted male ICR mouse assessed as body weight loss at 1 g/Kg, IG administered as single dose measured upto 15 days; conditions: in vivo, po, 1000 mg/kg, 360 h, time < 15 day
[20] = Acute toxicity in overnight fasted female ICR mouse assessed as body weight loss at 1 g/Kg, IG administered as single dose measured upto 15 days; conditions: in vivo, po, 1000 mg/kg, 360 h, time < 15 day
[21] = Acute toxicity in overnight fasted male ICR mouse assessed as abnormal behavior at 1 g/Kg, IG administered as single dose measured upto 15 days; conditions: in vivo, po, 1000 mg/kg, 360 h, time < 15 day
[22] = Acute toxicity in overnight fasted female ICR mouse assessed as abnormal behavior at 1 g/Kg, IG administered as single dose measured upto 15 days; conditions: in vivo, po, 1000 mg/kg, 360 h, time < 15 day
[23] = Metabolic stability in human liver microsomes assessed as half life at 1 uM incubated upto 50 mins in presence of NADPH by LC/MS/MS analysis; format: ADME, Microsome
[24] = Metabolic stability in human liver microsomes assessed as parent compound remaining at 1 uM incubated upto 50 mins in presence of NADPH by LC/MS/MS analysis; format: ADME, Microsome; conditions: read-out: Stability
[25] = test system: SH-SY5Y; assay: Neuroprotective activity against Abeta1-42 induced toxicity in human SH-SY5Y cells at 1 to 5 uM preincubated for 1 hr with compound followed by co-incubation with Abeta1-42 and measured after 24 hrs by MTT assay; format: functional, cell-based; conditions: dose 1-5 µM, time 25.0 hrs
[26] = test system: SH-SY5Y; assay: Neuroprotective activity against glutamate induced toxicity in human SH-SY5Y cells at low concentration preincubated for 1 hr with compound followed by co-incubation with glutamate and measured after 24 hrs by MTT assay; format: functional, cell-based; conditions: time 25.0 hrs
[27] = test system: SH-SY5Y; assay: Neuroprotective activity against glutamate induced toxicity in human SH-SY5Y cells assessed as effect on cell survival rate at 10 to 20 uM preincubated for 1 hr with compound followed by co-incubation with glutamate and measured after 24 hrs by MTT assay; format: functional, cell-based; conditions: dose 10-20 µM, time 25.0 hrs
[28] = test system: PC-12; assay: Cytoprotective activity against H2O2 induced cell damage in rat PC12 cells at 10 to 20 uM preincubated for 1 hr with compound followed by co-incubation with H2O2 and measured after 24 hrs by MTT assay; format: functional, cell-based; conditions: dose 10-20 µM, time 25.0 hrs
[29] = test system: BV-2; assay: Induction of antioxidant effect in mouse BV-2 cells assessed as prevention of LPS-induced ROS production preincubated for 1 hr with compound followed by LPS stimulation and measured after 24 hrs by DCFH-DA staining based inverted fluorescence microscopy analysis; format: functional, cell-based; conditions: time 25.0 hrs
[30] = test system: SH-SY5Y; assay: Induction of antioxidant effect in human SH-SY5Y cells assessed as prevention of Abeta1-42 induced ROS production preincubated for 1 hr with compound followed by Abeta1-42 stimulation and measured after 24 hrs by DCFH-DA staining based inverted fluorescence microscopy analysis; format: functional, cell-based; conditions: time 25.0 hrs

Chain of Cholinesterase (Equus caballus, UniProt P81908) (P81908 whole entry): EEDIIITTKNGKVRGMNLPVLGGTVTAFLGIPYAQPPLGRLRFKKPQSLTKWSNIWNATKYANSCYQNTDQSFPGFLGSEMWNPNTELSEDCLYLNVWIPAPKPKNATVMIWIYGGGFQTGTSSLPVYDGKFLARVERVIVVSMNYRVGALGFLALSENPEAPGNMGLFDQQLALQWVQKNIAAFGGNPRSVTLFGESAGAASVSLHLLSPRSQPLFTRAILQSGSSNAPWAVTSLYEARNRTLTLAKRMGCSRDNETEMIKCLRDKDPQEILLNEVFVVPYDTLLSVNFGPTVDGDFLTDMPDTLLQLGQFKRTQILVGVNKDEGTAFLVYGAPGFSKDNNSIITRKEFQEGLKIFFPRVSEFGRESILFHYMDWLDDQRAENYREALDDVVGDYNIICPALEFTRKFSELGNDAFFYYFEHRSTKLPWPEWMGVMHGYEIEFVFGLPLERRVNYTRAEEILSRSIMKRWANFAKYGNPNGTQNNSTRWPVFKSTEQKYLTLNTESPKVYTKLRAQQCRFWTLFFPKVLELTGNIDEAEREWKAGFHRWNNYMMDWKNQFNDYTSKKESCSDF
T1 sequence (P06276 whole entry): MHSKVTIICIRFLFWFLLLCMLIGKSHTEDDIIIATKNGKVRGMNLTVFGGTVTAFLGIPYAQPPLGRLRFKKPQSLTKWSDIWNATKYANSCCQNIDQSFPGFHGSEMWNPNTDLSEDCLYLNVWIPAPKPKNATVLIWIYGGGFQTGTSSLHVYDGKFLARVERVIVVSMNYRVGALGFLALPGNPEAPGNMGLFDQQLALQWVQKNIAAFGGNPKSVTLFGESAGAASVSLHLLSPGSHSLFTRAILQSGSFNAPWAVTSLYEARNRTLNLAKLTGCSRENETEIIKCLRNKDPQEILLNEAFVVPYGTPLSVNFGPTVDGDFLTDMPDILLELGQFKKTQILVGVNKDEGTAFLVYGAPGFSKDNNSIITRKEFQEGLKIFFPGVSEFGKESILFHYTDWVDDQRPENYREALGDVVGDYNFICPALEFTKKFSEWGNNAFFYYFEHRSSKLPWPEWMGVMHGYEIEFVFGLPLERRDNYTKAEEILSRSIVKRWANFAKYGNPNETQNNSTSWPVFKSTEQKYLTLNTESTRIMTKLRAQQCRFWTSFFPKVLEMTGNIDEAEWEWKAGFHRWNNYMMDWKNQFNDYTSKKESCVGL

Compound	IC50 [1]	IC50 [2]	viability at 100 µM [3]	viability at 2.5 µM [4]	viability at 24 h, 100 µM [5]	viability at 100 µM [6]	IC50 [7]	other results
Nc1nonc1-c1nc2ccccc2n1CC(=O)Nc1cc(F)cc(Br)c1	14.3 nM	62.2 nM	88.3%	44.2%	88.4%	88.4%		
Nc1nonc1-c1nc2ccccc2n1CC(=O)Nc1cc(Br)cc(C(F)(F)F)c1	4.21 nM	12.4 nM		44.7%	56.3%	75.8%	11400 nM	
Nc1nonc1-c1nc2ccccc2n1CC(=O)Nc1cc(F)cc(F)c1	58 nM	3680 nM	84.4%			60.6%		viability at 100 µM [8]: 56.2%; IC50 at 24 h [9]: 25400 nM
Nc1nonc1-c1nc2ccccc2n1CC(=O)Nc1cc(F)cc(C(F)(F)F)c1	255 nM	155 nM	74.4%	23.4%				viability at 24 h, 2.5 µM [10]: 39.5%; viability at 2.5 µM [11]: 39.5%
Cc1cc(Br)cc(NC(=O)Cn2c(-c3nonc3N)nc3ccccc32)c1	6.38 nM	218 nM	58.9%	31%	92.6%	71.4%		
N#Cc1cc(Cl)cc(NC(=O)Cn2c(-c3nonc3N)nc3ccccc32)c1	2.04 nM	83.9 nM	87%	24.6%	64.7%			viability at 2.5 µM [11]: 44.5%
Nc1nonc1-c1nc2ccccc2n1CC(=O)Nc1cc(F)cc(Cl)c1	5.32 nM	155 nM	58%	28.1%	111%	91.7%		
COc1cc2c(cc1OC)C(=O)C(CC1CCN(Cc3ccccc3)CC1)C2 (centres undefined)								Activity [12]: Active; Activity [13]: Active
Cc1cc(NC(=O)Cn2c(-c3nonc3N)nc3ccccc32)cc([N+](=O)[O-])c1	47.6 nM	278 nM			79.8%	79.1%	28800 nM	IC50 [14]: 58900 nM
Cc1cc(Cl)cc(NC(=O)Cn2c(-c3nonc3N)nc3ccccc32)c1	9.16 nM	101 nM	54.3%	32.1%	56.3%	65.9%		
Nc1nonc1-c1nc2ccccc2n1CC(=O)Nc1ccc([N+](=O)[O-])c(Cl)c1	11 nM	749 nM			52.6%	52.6%	27800 nM	IC50 [14]: 24900 nM
Nc1nonc1-c1nc2ccccc2n1CC(=O)Nc1ccc([N+](=O)[O-])c(Br)c1	33.7 nM	730 nM	51.4%					viability at 100 µM [8]: 70.5%; IC50 at 24 h [9]: 5490 nM; IC50 [15]: 5490 nM
Nc1nonc1-c1nc2ccccc2n1CC(=O)Nc1cc(Br)cc(Br)c1	3.84 nM	27.9 nM		27.3%	52%	85.3%	6560 nM	
Nc1nonc1-c1nc2ccccc2n1CC(=O)Nc1cc(Cl)cc(Br)c1	1.61 nM	75.7 nM		43.6%	59.9%	80.3%	37800 nM	
Cc1cc(F)cc(NC(=O)Cn2c(-c3nonc3N)nc3ccccc32)c1	57.8 nM	453 nM	75.8%	26.3%	97.5%	80%		
Nc1nonc1-c1nc2ccccc2n1CC(=O)Nc1cc([N+](=O)[O-])cc(C(F)(F)F)c1	0.35 nM	71.6 nM			57.5%	57.5%	18000 nM	IC50 [14]: 15400 nM
Nc1nonc1-c1nc2ccccc2n1CC(=O)Nc1ccc(F)cc1Br	119 nM	35.7 nM	86.6%	22.4%		89%		IC50 at 24 h [9]: 730 nM
COc1cc(NC(=O)Cn2c(-c3nonc3N)nc3ccccc32)cc(OC)c1	107 nM	309 nM	88.8%	24.6%		72.8%		IC50 at 24 h [9]: 6300 nM
Cc1cc(C)cc(NC(=O)Cn2c(-c3nonc3N)nc3ccccc32)c1	13 nM	885 nM	69.7%		85.9%	85.9%		IC50 [14]: 7500 nM
Nc1nonc1-c1nc2ccccc2n1CC(=O)Nc1cc(C(F)(F)F)cc(C(F)(F)F)c1	7.72 nM	935 nM	50.2%	46.1%	100%	74.2%		
Nc1nonc1-c1nc2ccccc2n1CC(=O)Nc1cc([N+](=O)[O-])cc([N+](=O)[O-])c1	2.94 nM	34.6 nM	50.8%			52.4%		Activity [16]: Non-Toxic; IC50 [14]: 72300 nM; IC50 at 24 h [9]: 19200 nM; Kd [17]: 3.09 nM; Activity ([17]; dose 0.3125-40 nM): Dose-Dependent Effect; Activity [18]: Non-Toxic; Activity [19]: Non-Toxic; Activity [20]: Non-Toxic; Activity [21]: Non-Toxic; Activity [22]: Non-Toxic; half-life at 1 µM [23]: 11.5 h; remaining at 50 min, 1 µM [24]: 92.8%; Activity [12]: Active; Activity [13]: Active; Activity [25]: Active; Activity [26]: Active; Activity [27]: Active; Activity [28]: Active; Activity [29]: Active; Activity [30]: Active
COC(=O)c1cc(NC(=O)Cn2c(-c3nonc3N)nc3ccccc32)cc(C(=O)OC)c1	1.48 nM	222 nM	50.5%			84%		IC50 [14]: 58000 nM; IC50 at 24 h [9]: 40400 nM
Cc1ccc2cc(NC(=O)Cn3c(-c4nonc4N)nc4ccccc43)ccc2n1						61.5%		
Nc1nonc1-c1nc2ccccc2n1CC(=O)Nc1cc(Cl)cc(Cl)c1	4.27 nM	30.4 nM		45.8%	52.1%	94.2%	13600 nM	
Nc1nonc1-c1nc2ccccc2n1CC(=O)Nc1cc(Cl)cc(C(F)(F)F)c1	2.63 nM	113 nM			90%		46200 nM	IC50 [14]: 10600 nM; IC50 [15]: 2480 nM
